The values that follow come from ChEMBL document CHEMBL3301562, “MMV Box screening against Plasmodium falciparum protein kinases and aminoacyl tRNA synthetases”.

Holding throughout (type): functional
Experiment [1] has as its target T1, Putative uncharacterized protein pk7 (Plasmodium falciparum, UniProt O96214).
T1 sequence (O96214 whole entry): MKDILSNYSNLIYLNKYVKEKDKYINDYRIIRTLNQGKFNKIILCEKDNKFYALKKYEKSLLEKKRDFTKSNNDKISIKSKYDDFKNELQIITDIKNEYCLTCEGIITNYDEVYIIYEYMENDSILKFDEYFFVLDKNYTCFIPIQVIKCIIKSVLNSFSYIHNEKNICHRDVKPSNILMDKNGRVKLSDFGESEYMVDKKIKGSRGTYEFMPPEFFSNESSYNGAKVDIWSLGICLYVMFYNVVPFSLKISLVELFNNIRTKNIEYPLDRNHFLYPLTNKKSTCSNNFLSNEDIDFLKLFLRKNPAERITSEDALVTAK
Nature of the experiment: Final concentrations were 1 uM ATP, 2 mM DTT, 20 mM MgCl2, 2 mM MnCl2, 0.01% BSA, and 6 ug/ml PK7, in a buffer of 20 mM Tris-HCl (pH 7.5). The enzyme itself was the only substrate present (since autophosphorylation occurs); 100 uM 1NA-PP1 was used as a control inhibitor. Incubation time was 3 hours.

Experiment [2] concerns the target Lysine--tRNA ligase (Plasmodium falciparum (isolate 3D7), UniProt Q8IDJ8). As to the kind of experiment: MMV: KRS recombinant Plasmodium falciparum Lysyl-tRNA-synthetase, assay with yeast tRNA, ATP, and lysine and 3 uM MMV malaria box compound, assay read out with kinase glo as % inhibition.
Experiment [3] deals with T2, Proline--tRNA ligase (Plasmodium falciparum (isolate 3D7), UniProt Q8I5R7).
T2 sequence (Q8I5R7 whole entry): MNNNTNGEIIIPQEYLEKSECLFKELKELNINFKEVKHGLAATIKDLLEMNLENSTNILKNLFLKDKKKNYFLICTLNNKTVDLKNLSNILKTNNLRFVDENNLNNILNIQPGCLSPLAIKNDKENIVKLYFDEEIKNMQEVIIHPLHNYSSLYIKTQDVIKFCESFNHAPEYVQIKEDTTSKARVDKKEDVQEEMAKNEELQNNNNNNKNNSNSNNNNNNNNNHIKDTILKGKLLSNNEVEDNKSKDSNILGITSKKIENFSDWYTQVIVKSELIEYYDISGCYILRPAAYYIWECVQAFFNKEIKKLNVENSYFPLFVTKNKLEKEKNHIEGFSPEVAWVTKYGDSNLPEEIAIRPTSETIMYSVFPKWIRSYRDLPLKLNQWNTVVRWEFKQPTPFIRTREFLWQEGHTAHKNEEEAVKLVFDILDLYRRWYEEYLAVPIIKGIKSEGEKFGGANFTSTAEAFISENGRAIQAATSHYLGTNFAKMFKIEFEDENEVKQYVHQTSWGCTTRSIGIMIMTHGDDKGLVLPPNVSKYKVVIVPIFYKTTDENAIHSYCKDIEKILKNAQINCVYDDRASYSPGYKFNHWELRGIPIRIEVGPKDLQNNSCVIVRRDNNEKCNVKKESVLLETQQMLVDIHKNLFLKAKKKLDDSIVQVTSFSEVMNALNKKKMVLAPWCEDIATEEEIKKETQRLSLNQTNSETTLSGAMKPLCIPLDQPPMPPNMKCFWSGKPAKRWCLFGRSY
Nature of the experiment: MMV: ProRS recombinant Plasmodium falciparum Prolyl-tRNA-synthetase, assay with yeast tRNA, ATP, and proline and 3 uM MMV malaria box compound, assay read out with kinase glo as % inhibition.

In experiment [4] the target is T3, Mitogen-activated protein kinase (Plasmodium falciparum, UniProt Q25917).
T3 sequence (Q25917 whole entry): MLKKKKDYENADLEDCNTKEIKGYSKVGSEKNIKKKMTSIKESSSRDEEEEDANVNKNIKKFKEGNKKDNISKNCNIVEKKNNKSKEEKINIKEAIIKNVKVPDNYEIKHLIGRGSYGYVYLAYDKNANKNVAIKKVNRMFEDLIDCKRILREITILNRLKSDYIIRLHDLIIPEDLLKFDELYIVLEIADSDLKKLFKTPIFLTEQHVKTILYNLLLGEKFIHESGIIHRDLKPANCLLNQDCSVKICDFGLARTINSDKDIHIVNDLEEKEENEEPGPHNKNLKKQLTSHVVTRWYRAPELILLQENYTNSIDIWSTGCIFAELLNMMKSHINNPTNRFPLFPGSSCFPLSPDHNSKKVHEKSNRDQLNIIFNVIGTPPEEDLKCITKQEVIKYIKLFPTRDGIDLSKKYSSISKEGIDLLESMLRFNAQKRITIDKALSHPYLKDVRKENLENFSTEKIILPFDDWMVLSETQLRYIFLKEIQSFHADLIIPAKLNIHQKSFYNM
Nature of the experiment: Final concentrations were 1 uM ATP, 0.5 mM DTT, 1 mM MgCl2, 0.5 mg/mL BSA, and 10 ug/ml MAP2 in a buffer of 50 mM HEPES (pH 7.0). 0.5 mg/mL histone III-S served as the substrate (13); 100 uM AMP-PNP, an ATP analog, was used as a control inhibitor. Incubation time was 4 hours.

For experiment [5], the target named is Calcium-dependent protein kinase 1 (Plasmodium falciparum, UniProt P62344). Nature of the experiment: MMV: CDPK1 Protein kinase inhibition assay using recombinant PfCDPK1, syntide 2 peptide substrate, ATP and KinaseGlo to measure % inhibition at 1 uM MMV box compound. (Kinase-Glo reads ATP consumption through a luciferase reaction.)
Chain of Calcium-dependent protein kinase 1 (P62344 whole entry): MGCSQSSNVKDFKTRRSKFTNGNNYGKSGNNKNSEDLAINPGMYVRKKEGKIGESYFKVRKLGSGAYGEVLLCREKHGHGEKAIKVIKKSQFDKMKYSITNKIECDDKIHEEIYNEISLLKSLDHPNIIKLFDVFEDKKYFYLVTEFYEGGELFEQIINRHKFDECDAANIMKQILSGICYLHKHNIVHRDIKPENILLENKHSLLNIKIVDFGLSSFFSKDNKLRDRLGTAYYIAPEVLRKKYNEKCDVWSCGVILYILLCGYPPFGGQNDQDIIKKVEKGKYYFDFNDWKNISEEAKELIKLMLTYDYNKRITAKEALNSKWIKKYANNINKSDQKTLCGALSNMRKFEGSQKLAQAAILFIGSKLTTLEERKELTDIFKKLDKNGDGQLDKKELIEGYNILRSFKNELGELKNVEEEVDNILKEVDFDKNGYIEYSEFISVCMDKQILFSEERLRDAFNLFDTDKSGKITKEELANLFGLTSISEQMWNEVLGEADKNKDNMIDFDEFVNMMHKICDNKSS
The target of experiment [6] is T4, Calcium-dependent protein kinase 4 (Plasmodium falciparum (isolate 3D7), UniProt Q8IBS5).
T4 sequence (Q8IBS5 whole entry): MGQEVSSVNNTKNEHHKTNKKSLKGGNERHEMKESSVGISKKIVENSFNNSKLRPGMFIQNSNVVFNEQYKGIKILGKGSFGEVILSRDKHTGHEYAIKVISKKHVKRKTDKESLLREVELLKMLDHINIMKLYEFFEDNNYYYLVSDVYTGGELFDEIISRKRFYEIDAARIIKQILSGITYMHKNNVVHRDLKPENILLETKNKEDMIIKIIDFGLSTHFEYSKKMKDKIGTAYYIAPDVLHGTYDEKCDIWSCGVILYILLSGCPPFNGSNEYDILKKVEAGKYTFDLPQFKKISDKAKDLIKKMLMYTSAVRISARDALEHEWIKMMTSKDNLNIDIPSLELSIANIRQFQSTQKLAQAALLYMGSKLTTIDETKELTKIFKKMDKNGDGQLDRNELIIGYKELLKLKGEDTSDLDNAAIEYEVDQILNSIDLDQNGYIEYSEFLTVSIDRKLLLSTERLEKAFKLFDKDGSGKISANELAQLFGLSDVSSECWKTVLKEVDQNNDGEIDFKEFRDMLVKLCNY
Nature of the experiment: MMV: CDPK4 Protein kinase inhibition assay using recombinant PfCDPK4, syntide2 peptide substrate, ATP and KinaseGlo to measure % inhibition at 1 uM MMV box compound.

Experiment [7] addresses T5, Cdk-related protein kinase 6 (Plasmodium falciparum, UniProt O77239).
T5 sequence (O77239 whole entry): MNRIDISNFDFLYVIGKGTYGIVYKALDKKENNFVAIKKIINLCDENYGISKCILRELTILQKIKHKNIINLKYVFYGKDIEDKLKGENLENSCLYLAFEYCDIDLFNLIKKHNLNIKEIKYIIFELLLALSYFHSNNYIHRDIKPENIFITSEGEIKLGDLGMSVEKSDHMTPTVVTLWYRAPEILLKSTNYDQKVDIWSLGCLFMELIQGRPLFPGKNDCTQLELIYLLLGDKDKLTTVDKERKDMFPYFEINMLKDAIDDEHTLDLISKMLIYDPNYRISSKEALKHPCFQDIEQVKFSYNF
As to the kind of experiment: Final concentrations were 1.5 uM ATP, 5 mM MnCl2, and 15 ug/ml PK6 in a buffer of 100 mM Tris-HCl (pH 7.5). 50 ug/mL MBP was provided as the substrate; 10 uM staurosporine was used as a control inhibitor. Incubation time was 3 hours and 40 minutes.The catalytic activity of each kinase was considered proportional to ATP consumed, as determined from measurements of residual [ATP] with the luciferase-based reagent Kinase-Glo (Promega) following incubation. Luminescence (proportional to residual [ATP]) was measured on the plate readers FLx800 (BioTek Instruments, Winooski, VT, USA) and MicroBeta2.

Chain of Lysine--tRNA ligase (Q8IDJ8 whole entry): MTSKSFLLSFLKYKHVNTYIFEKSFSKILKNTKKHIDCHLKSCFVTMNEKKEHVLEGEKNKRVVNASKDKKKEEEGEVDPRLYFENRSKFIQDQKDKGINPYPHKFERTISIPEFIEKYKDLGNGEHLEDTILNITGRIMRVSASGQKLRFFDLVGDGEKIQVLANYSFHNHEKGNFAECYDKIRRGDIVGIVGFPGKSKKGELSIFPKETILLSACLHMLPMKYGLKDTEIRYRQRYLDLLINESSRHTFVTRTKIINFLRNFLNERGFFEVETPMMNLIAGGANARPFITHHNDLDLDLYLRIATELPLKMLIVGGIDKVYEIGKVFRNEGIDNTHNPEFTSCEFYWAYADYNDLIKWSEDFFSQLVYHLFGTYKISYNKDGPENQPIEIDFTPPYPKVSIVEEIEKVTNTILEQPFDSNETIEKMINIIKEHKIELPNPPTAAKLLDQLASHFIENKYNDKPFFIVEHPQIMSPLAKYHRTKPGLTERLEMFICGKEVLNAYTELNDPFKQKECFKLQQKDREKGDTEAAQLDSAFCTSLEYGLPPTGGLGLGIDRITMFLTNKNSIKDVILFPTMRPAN

Turning to `O=C(NC1CCCCC1)C(c1cccs1)N(CCc1ccccc1)C(=O)c1ccco1` (stereo not drawn), the IC50 was > 1000 nM in experiment [1]; > 2500 nM in experiment [2]; > 2500 nM in experiment [3]; > 1000 nM in experiment [4]; > 1000 nM in experiment [5]; > 1000 nM in experiment [6]. Further, the IC50 in experiment [7] was > 1000 nM.

Consider `c1ccc2c(NCCCCCCNc3c4c(nc5ccccc35)CCCC4)c3c(nc2c1)CCCC3`, for which the IC50 in experiment [1] is > 1000 nM; in experiment [2] it was > 2500 nM; in experiment [3], > 2500 nM; in experiment [4] it was > 1000 nM; in experiment [5], > 1000 nM; in experiment [6], > 1000 nM. In addition, the IC50 in experiment [7] was > 1000 nM.

As for `Nc1ccc(-c2nc3cc(Cc4ccc5[nH]c(-c6ccc(N)cc6)nc5c4)ccc3[nH]2)cc1`, the IC50 in experiment [1] is > 1000 nM; in experiment [2], > 2500 nM; in experiment [3] it was > 2500 nM; in experiment [4] it was > 1000 nM; in experiment [5], > 1000 nM; in experiment [6] it was > 1000 nM. In experiment [7], the IC50 is > 1000 nM.

Consider `CCCCOC(=O)c1ccc(Nc2cc(C)nc3ccc(OC)cc23)cc1`, for which the IC50 in experiment [1] is > 1000 nM; in experiment [2], > 2500 nM; in experiment [3] it was > 2500 nM; in experiment [4], > 1000 nM; in experiment [5], > 1000 nM; in experiment [6], > 1000 nM. Moreover, in experiment [7], the IC50 is > 1000 nM.

Regarding `COc1ccc(C2NCCc3c2[nH]c2ccccc32)cc1CN1CCN(c2ccc(F)cc2)CC1` (stereo not drawn), the IC50 is > 1000 nM in experiment [1]; > 2500 nM in experiment [2]; > 2500 nM in experiment [3]; > 1000 nM in experiment [4]; > 1000 nM in experiment [5]; > 1000 nM in experiment [6]. Besides, the IC50 in experiment [7] was > 1000 nM.

As for `Cc1ccc(C)c(Cn2c(N3CCC(C(=O)NCc4cccs4)CC3)nc3ccccc32)c1`, the IC50 in experiment [1] is > 1000 nM; in experiment [2] it was > 2500 nM; in experiment [3], > 2500 nM; in experiment [4] it was > 1000 nM; in experiment [5], > 1000 nM; in experiment [6], > 1000 nM. The IC50 in experiment [7] is > 1000 nM.

For the compound `c1ccc2c(NCCc3c[nH]c4ccccc34)c3ccccc3nc2c1`, the IC50 in experiment [1] is > 1000 nM; in experiment [2], > 2500 nM; in experiment [3], > 2500 nM; in experiment [4] it was > 1000 nM; in experiment [5], > 1000 nM; in experiment [6] it was > 1000 nM. In addition, the IC50 in experiment [7] is > 1000 nM.

On to `CCN(CC)CCCNc1ccnc2cc3ccccc3cc12`, for which the IC50 in experiment [1] is > 1000 nM; in experiment [2], > 2500 nM; in experiment [3] it was > 2500 nM; in experiment [4], > 1000 nM; in experiment [5], > 1000 nM; in experiment [6] it was > 1000 nM. Further, the IC50 in experiment [7] is > 1000 nM.

For the compound `O=C(Nc1ccc(-c2nc3cc4ccccc4cc3[nH]2)cc1)c1cccc(Br)c1`, the IC50 in experiment [1] is > 1000 nM; in experiment [2] it was > 2500 nM; in experiment [3], > 2500 nM; in experiment [4], > 1000 nM; in experiment [5], > 1000 nM; in experiment [6] it was > 1000 nM. Also, the IC50 in experiment [7] is > 1000 nM.

For the compound `CCCOCc1cc(CN2CCN(c3cccc(Cl)c3)CC2)c(O)c2ncccc12`, the IC50 in experiment [1] is > 1000 nM; in experiment [2], > 2500 nM; in experiment [3], > 2500 nM; in experiment [4] it was > 1000 nM; in experiment [5] it was > 1000 nM; in experiment [6], > 1000 nM. The IC50 in experiment [7] is > 1000 nM.

For `COc1ccc(C(=O)NC(c2ccccc2Cl)c2cc(Cl)c3cccnc3c2O)cc1` (stereo not drawn), the IC50 is > 1000 nM in experiment [1]; > 2500 nM in experiment [2]; > 2500 nM in experiment [3]; > 1000 nM in experiment [4]; > 1000 nM in experiment [5]; > 1000 nM in experiment [6]. For the same compound, in experiment [7], the IC50 is > 1000 nM.

For `CCCc1c(C)nc2ccc(Br)cc2c1O`, the IC50 in experiment [1] is > 1000 nM; in experiment [2], > 2500 nM; in experiment [3] it was > 2500 nM; in experiment [4] it was > 1000 nM; in experiment [5], > 1000 nM; in experiment [6], > 1000 nM. The IC50 in experiment [7] is > 1000 nM.

`CCCCCCC(O)(c1ccc(F)cc1)C(CN1CCOCC1)c1ccccc1` (stereo not drawn): the IC50 in experiment [1] was > 1000 nM; in experiment [2], > 2500 nM; in experiment [3], > 2500 nM; in experiment [4] it was > 1000 nM; in experiment [5], > 1000 nM; in experiment [6], > 1000 nM. Moreover, the IC50 in experiment [7] is > 1000 nM.

On to `COc1cc(OC)cc(N2C(=O)N(Cc3ccc(C(C)(C)C)cc3)c3ccccc3S2(=O)=O)c1`, for which the concentration for half-maximal inhibition (IC50) in experiment [1] was > 1000 nM; in experiment [2], > 2500 nM; in experiment [3], > 2500 nM; in experiment [4] it was > 1000 nM; in experiment [5] it was > 1000 nM; in experiment [6], > 1000 nM. Besides, the IC50 in experiment [7] is > 1000 nM.

As usually defined, the IC50 is the concentration that gives 50% inhibition.
